According to ChEMBL document CHEMBL3232739, “Discovery of a potent and dissociated non-steroidal glucocorticoid receptor agonist containing an alkyl carbinol pharmacophore” (Bioorg Med Chem Lett, 2014):

Assays:
[1] = system: Mus musculus; test: Toxicity in B10.RIII mouse assessed as triglyceride level in serum at 100 mg/kg, po qd for 5 weeks relative to control; type: organism-based; set-up: dose 100 mg/kg, route oral; conditions: in vivo, 840 h
[2] = Mean residence time in Sprague-Dawley rat at 2 mg/kg, iv; type: ADME, organism-based; set-up: dose 2 mg/kg, route intravenous; conditions: in vivo
[3] = molecular target: T1, Glucocorticoid receptor (Homo sapiens, UniProt P04150)
T1 sequence (P04150 whole entry): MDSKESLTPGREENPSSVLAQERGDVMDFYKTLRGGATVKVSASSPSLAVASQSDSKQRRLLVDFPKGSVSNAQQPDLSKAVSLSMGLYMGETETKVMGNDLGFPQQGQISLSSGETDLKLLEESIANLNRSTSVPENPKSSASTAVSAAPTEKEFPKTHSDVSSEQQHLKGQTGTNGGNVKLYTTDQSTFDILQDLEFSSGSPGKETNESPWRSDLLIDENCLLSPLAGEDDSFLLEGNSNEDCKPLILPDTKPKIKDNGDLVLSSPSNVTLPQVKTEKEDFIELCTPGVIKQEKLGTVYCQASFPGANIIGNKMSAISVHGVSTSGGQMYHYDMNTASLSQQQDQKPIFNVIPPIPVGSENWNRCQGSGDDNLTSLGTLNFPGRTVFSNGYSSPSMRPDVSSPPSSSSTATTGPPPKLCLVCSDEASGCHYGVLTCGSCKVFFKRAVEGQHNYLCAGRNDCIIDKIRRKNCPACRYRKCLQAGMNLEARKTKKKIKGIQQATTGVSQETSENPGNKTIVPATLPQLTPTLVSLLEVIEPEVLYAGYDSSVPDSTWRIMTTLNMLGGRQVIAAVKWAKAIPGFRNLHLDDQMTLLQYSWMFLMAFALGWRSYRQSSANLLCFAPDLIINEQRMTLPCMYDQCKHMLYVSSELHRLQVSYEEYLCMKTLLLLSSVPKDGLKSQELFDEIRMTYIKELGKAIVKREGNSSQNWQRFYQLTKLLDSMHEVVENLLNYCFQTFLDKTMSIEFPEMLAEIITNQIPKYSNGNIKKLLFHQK

[4] = system: Mus musculus; test: Toxicity in B10.RIII mouse assessed as free fatty acid level in serum at 100 mg/kg, po qd for 5 weeks relative to control; type: organism-based; set-up: dose 100 mg/kg, route oral; conditions: in vivo, 840 h
[5] = molecular target: T2, Progesterone receptor (Homo sapiens, UniProt P06401); test: Displacement of TAMRA-labeled mifepristone from progesterone receptor (unknown origin) by fluorescence polarization assay
T2 sequence (P06401 whole entry): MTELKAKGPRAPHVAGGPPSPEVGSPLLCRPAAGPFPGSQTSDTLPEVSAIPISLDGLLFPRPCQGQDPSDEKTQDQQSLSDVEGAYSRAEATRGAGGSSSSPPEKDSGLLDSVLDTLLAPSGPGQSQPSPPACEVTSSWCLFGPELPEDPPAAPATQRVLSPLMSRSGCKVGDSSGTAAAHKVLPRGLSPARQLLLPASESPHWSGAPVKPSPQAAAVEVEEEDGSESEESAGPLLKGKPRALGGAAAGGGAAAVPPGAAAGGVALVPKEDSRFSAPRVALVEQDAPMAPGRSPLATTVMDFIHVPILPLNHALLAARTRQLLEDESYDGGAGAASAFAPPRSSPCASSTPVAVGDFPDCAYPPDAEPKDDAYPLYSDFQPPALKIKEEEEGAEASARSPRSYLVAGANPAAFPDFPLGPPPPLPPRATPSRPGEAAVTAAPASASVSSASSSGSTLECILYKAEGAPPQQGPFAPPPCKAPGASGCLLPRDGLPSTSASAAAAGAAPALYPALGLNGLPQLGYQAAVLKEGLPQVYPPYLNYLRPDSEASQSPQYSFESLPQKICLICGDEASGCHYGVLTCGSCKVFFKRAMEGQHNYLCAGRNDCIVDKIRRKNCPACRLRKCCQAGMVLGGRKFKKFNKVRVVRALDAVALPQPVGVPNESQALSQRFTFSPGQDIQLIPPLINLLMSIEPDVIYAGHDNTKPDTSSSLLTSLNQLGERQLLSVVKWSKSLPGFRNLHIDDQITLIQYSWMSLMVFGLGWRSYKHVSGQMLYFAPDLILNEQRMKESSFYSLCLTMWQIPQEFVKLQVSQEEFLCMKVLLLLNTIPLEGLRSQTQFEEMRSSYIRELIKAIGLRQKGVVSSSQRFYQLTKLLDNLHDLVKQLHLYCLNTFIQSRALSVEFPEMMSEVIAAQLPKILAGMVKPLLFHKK

[6] = Cmax in Sprague-Dawley rat at 30 mg/kg, po; type: ADME, organism-based; set-up: dose 30 mg/kg, route oral; conditions: in vivo
[7] = system: Mus musculus; test: Antiarthritic activity in B10.RIII mouse collagen/complete Freund's adjuvant-induced arthritis model assessed as reduction of disease score at 30 mg/kg, po qd for 5 weeks relative to control; type: functional; set-up: scale not given: the % may be the effect or the level left
[8] = molecular target: T1, Glucocorticoid receptor; remark: listed apart in the source
Description: Transactivation of glucocorticoid receptor in human HeLa cells harboring MMTV promoter by luciferase reporter gene assay

[9] = system: Mus musculus; test: Toxicity in B10.RIII mouse assessed as insulin level in serum at 30 mg/kg, po qd for 5 weeks relative to control; type: organism-based; set-up: dose 30 mg/kg, route oral; conditions: in vivo, 840 h
[10] = system: Mus musculus; test: Antiarthritic activity in po dosed B10.RIII mouse collagen/complete Freund's adjuvant-induced arthritis model assessed as reduction of disease score administered po qd for 5 weeks relative to control; type: functional; conditions: 840 h
[11] = Permeability across basolateral to apical side in human Caco2 cells; type: ADME, cell-based; conditions: Caco-2, read-out: permeability
[12] = system: Mus musculus; test: Toxicity in B10.RIII mouse assessed as free fatty acid level in serum at 30 mg/kg, po qd for 5 weeks relative to control; type: organism-based; set-up: dose 30 mg/kg, route oral; conditions: in vivo, 840 h

Compound: Cc1ccc(F)cc1C(C)(C)C[C@@](O)(Cc1cc2cnccc2[nH]1)C(C)(C)C
- Activity [1]: 113%
- MRT [2]: 1.38 h
- IC50 [3]: 2 nM
- Activity [4]: -27%
- IC50 [5]: 290 nM
- Cmax [6]: 708 ng/mL
- Activity [7]: -51%
- IC50 [8]: > 2000 nM
- Activity [9]: 60%
- ED50 [10]: 30 mg/kg
- Papp B→A [11]: 16.9 ×10⁻⁶ cm/s
- Activity [12]: 25%
